Columns and labels:
Test in all cases: Test F preemergence
Type in all cases: in vivo
Details in all cases: 21 days, scale 0 to 100
[1] = tested on: chickweed (common chickweed, Stellaria media)
Text: (§1) Seeds of plant species selected from bermudagrass (Cynodon dactylon), Surinam grass (Brachiaria decumbens), large (Lg) crabgrass (Digitaria sanguinalis), crabgrass, naked (naked crabgrass, Digitaria nuda), foxtail, green (green foxtail, Setaria viridis), johnsongrass (Sorghum halepense), kochia (Kochia scoparia), morningglory (pitted morningglory, Ipomoea lacunosa), nutsedge, purple (purple nutsedge, Cyperus rotundus), ragweed (common ragweed, Ambrosia elatior), mustard, black (black mustard, Brassica nigra), guineagrass (Panicum maximum), dallisgrass (Paspalum dilatatum), barnyardgrass (Echinochloa crus-galli), sandbur (southern sandbur, Cenchrus echinatus), sowthistle (common sowthistle, Sonchus oleraceous), Italian ryegrass (Lolium multiflorum), signalgrass (broadleaf signalgrass, Brachiaria platyphylla), dayflower (Virginia (VA) dayflower, Commelina virginica), bluegrass (annual bluegrass, Poa annua), quackgrass (Elytrigia repens), mallow (common mallow, Malva sylvestris), buckwheat, wild (wild buckwheat, Polygonum convolvulus), leafy spurge (Euphorbia esula), chickweed (common chickweed, Stellaria media), wild poinsettia (Euphorbia heterophylla), and pigweed (Amaranthus retroflexus) were planted into a blend of loam soil and sand and treated preemergence with test a chemical formulated in a non-phytotoxic solvent mixture which included a surfactant.
(§2) Treated plants and controls were maintained in a greenhouse for 21 days, after which time all species were compared to controls and visually evaluated. Plant response ratings, summarized in Table F, are based on a scale of 0 to 100 where 0 is no effect and 100 is complete control. A dash (-) response means no test result.

[2] = tested on: wild poinsettia (Euphorbia heterophylla)
Text: as §1, §2

[3] = tested on: dayflower (Virginia (VA) dayflower, Commelina virginica)
Text: as §1, §2

[4] = tested on: foxtail, green (green foxtail, Setaria viridis)
Text: as §1, §2

[5] = tested on: bermudagrass (Cynodon dactylon)
Text: as §1, §2

[6] = tested on: dallisgrass (Paspalum dilatatum)
Text: as §1, §2

[7] = tested on: barnyardgrass (Echinochloa crus-galli)
Text: as §1, §2

[8] = tested on: bluegrass (annual bluegrass, Poa annua)
Text: as §1, §2

[9] = tested on: guineagrass (Panicum maximum)
Text: as §1, §2

[10] = tested on: Surinam grass (Brachiaria decumbens)
Text: as §1, §2

[11] = tested on: mustard, black (black mustard, Brassica nigra)
Text: as §1, §2

[12] = tested on: sandbur (southern sandbur, Cenchrus echinatus)
Text: as §1, §2

[13] = tested on: ragweed (common ragweed, Ambrosia elatior)
Text: as §1, §2

[14] = tested on: johnsongrass (Sorghum halepense)
Text: as §1, §2

[15] = tested on: buckwheat, wild (wild buckwheat, Polygonum convolvulus)
Text: as §1, §2

[16] = tested on: large (Lg) crabgrass (Digitaria sanguinalis)
Text: as §1, §2

[17] = tested on: crabgrass, naked (naked crabgrass, Digitaria nuda)
Text: as §1, §2

[18] = tested on: sowthistle (common sowthistle, Sonchus oleraceous)
Text: as §1, §2

N#Cc1cccc(Oc2ncc(Cl)cn2)c1Oc1ncc(Cl)cn1 [Compound 3, 2,3-bis[(5-chloro-2-pyrimidinyl)oxy]benzonitrile]
Plant response rating, Chickweed ([1]; 62 g ai/ha): 100
Plant response rating, Chickweed ([1]; 125 g ai/ha): 100
Plant response rating, Chickweed ([1]; 250 g ai/ha): 100
Plant response rating, Poinsettia, Wild ([2]; 62 g ai/ha): 95
Plant response rating, Poinsettia, Wild ([2]; 125 g ai/ha): 95
Plant response rating, Poinsettia, Wild ([2]; 250 g ai/ha): 100
Plant response rating, Dayflower, VA ([3]; 62 g ai/ha): 98
Plant response rating, Dayflower, VA ([3]; 125 g ai/ha): 100
Plant response rating, Dayflower, VA ([3]; 250 g ai/ha): 100
Plant response rating, Foxtail, Green ([4]; 62 g ai/ha): 100
Plant response rating, Foxtail, Green ([4]; 125 g ai/ha): 100
Plant response rating, Foxtail, Green ([4]; 250 g ai/ha): 100
Plant response rating, Bermudagrass ([5]; 62 g ai/ha): 100
Plant response rating, Bermudagrass ([5]; 125 g ai/ha): 100
Plant response rating, Bermudagrass ([5]; 250 g ai/ha): 100
Plant response rating, Dallisgrass ([6]; 62 g ai/ha): 100
Plant response rating, Dallisgrass ([6]; 125 g ai/ha): 100
Plant response rating, Dallisgrass ([6]; 250 g ai/ha): 100
Plant response rating, Barnyardgrass ([7]; 62 g ai/ha): 98
Plant response rating, Barnyardgrass ([7]; 125 g ai/ha): 100
Plant response rating, Barnyardgrass ([7]; 250 g ai/ha): 100
Plant response rating, Bluegrass ([8]; 62 g ai/ha): 80
Plant response rating, Bluegrass ([8]; 125 g ai/ha): 100
Plant response rating, Bluegrass ([8]; 250 g ai/ha): 100
Plant response rating, Guineagrass ([9]; 62 g ai/ha): 100
Plant response rating, Guineagrass ([9]; 125 g ai/ha): 100
Plant response rating, Guineagrass ([9]; 250 g ai/ha): 100
Plant response rating, Surinam Grass ([10]; 62 g ai/ha): 75
Plant response rating, Surinam Grass ([10]; 125 g ai/ha): 100
Plant response rating, Surinam Grass ([10]; 250 g ai/ha): 100
Plant response rating, Mustard, Black ([11]; 62 g ai/ha): 100
Plant response rating, Mustard, Black ([11]; 125 g ai/ha): 100
Plant response rating, Mustard, Black ([11]; 250 g ai/ha): 100
Plant response rating, Sandbur ([12]; 62 g ai/ha): 35
Plant response rating, Sandbur ([12]; 125 g ai/ha): 100
Plant response rating, Sandbur ([12]; 250 g ai/ha): 100
Plant response rating, Ragweed ([13]; 62 g ai/ha): 85
Plant response rating, Ragweed ([13]; 125 g ai/ha): 100
Plant response rating, Ragweed ([13]; 250 g ai/ha): 100
Plant response rating, Johnsongrass ([14]; 62 g ai/ha): 75
Plant response rating, Johnsongrass ([14]; 125 g ai/ha): 100
Plant response rating, Johnsongrass ([14]; 250 g ai/ha): 100
Plant response rating, Buckwheat, Wild ([15]; 62 g ai/ha): 100
Plant response rating, Buckwheat, Wild ([15]; 125 g ai/ha): 100
Plant response rating, Buckwheat, Wild ([15]; 250 g ai/ha): 100
Plant response rating, Crabgrass, Large ([16]; 62 g ai/ha): 100
Plant response rating, Crabgrass, Large ([16]; 125 g ai/ha): 100
Plant response rating, Crabgrass, Large ([16]; 250 g ai/ha): 100
Plant response rating, Crabgrass, Naked ([17]; 62 g ai/ha): 100
Plant response rating, Crabgrass, Naked ([17]; 125 g ai/ha): 100
Plant response rating, Crabgrass, Naked ([17]; 250 g ai/ha): 100
Plant response rating, Sowthistle ([18]; 62 g ai/ha): 100
Plant response rating, Sowthistle ([18]; 125 g ai/ha): 100
Plant response rating, Sowthistle ([18]; 250 g ai/ha): 100
